This is an account of results in patent US11116799B2, “Generation of uniform hepatocytes from human embryonic stem cells by inhibiting TGF-beta and methods of maintaining hepatic cultures” (Wisconsin Alumni Research Foundation, priority 2016, dated 2021).

Series [1] concerns H9-ALB-GFP/AFP-Tomato (dual clone 1) derived hepatocytes. The series can be described thus: RNA-Seq of ES-derived hepatocytes treated with Stauprimide. The note with it: dual clone 1 ES-derived hepatocytes (CDI), 72 hrs. The format is cell-based, human. The arrangement: HNF4A RNA-Seq expression / ADH4 RNA-Seq expression / BAAT RNA-Seq expression / SERPINC1 RNA-Seq expression / SERPINA1 RNA-Seq expression / ALB RNA-Seq expression / AFP RNA-Seq expression / UGT1A9 RNA-Seq expression / UGT1A1 RNA-Seq expression / UGT1A6 RNA-Seq expression: unit not given here. Here is the method: The effects of Stauprimide in maturation of ES-derived hepatocytes was validated by RNA-Seq as described above. Briefly, the H9-ALB-GFP/AFP-Tomato (dual clone 1) were differentiated to a pure population of hepatocytes by CDI (Madison, Wis.) and treated with Stauprimide for 72 hours. […] Thus, Stauprimide is able to increase expression of mature hepatocyte genes and reduce the expression of the fetal marker AFP.

Another series has as its system hepatocytes. The series can be described thus: Robotic compound screen for albumin and AFP expression in hepatocytes. The format is cell-based. The method, then:
A robotic screen was performed to determine compounds that increase expression of albumin in hepatocytes as an indicator that the compounds play a role in hepatocyte maturation. 1200 compounds were screened and 400 compounds analyzed for their effects on hepatocytes with regard to the levels of albumin and fetal marker AFP.

The subject of series [2] is primary mouse hepatocytes. The series can be described thus: RNA-Seq gene expression in primary mouse hepatocytes treated with kinase inhibitors. The note with it: 10 μM, 72 hours. An excerpt: The next step was to determine if the PI3/Akt and MAPK pathways are involved in maintenance of hepatocyte maturation. We investigated whether small molecule inhibition of these pathways would mimic let-7's action and reduce the loss of mature function of hepatocytes in culture after removal from their microenvironment. […] Then, expression of the top ten important metabolic enzymes (CYPs, UGTs and transporters) by RNA-Seq with uncultured fresh hepatocytes and control vehicle hepatocytes treated for 72 hours was compared.
Hepatocytes from 6 black mice livers were isolated by perfusion following standard protocol and cultured on Matrigel coated plates in hepatocyte growth medium (Promocell). Whole developing livers from 6 black mice were used for RNA isolation with Trizol for let-7c measurements.
Total RNA (including microRNA) from all cells, which were not mentioned otherwise, were isolated using RNAeasy Plus Kit […] following manufacturers protocol. RNA-Seq was performed by LM-Seq (Illumina). MicroRNAs were sequenced using Illumina's small RNA sequencing kit. Expression of let-7 and U6 snoRNA were measured by quantitative PCR using ABI's kit. Let-7c expression levels were normalized by U6 snoRNA expression (RQ or relative quantity values, error bars representing standard error, RQ min and RQ max).
Multiple batches of cryopreserved induction qualified human hepatocytes (each batch being from one donor) were purchased from Life Technologies and cultured on Matrigel coated plates in hepatocyte growth medium (PromoCell). For dedifferentiation studies, hepatocytes from batches Hu4260, Hu8135, Hu4279 and Hu8137 were used after mixing equal number of live cells. For small molecule treatments, batch Hu4260 was used. Mouse hepatocytes were isolated from Black 6 mice livers by perfusion following standard protocol and cultured on Matrigel coated plates in hepatocyte growth medium (Promocell).
Total RNA were isolated using RNAeasy Plus Kit (Qiagen) following manufacturers protocol and qualified with the Life Technologies Qubit fluorometer and Agilent Bioanalyzer. […] Final indexed cDNA libraries were pooled and sequenced on an Illumina HiSeq 2500. Base-calling and demultiplexing were performed using Casava (v1.8.2). Sequences were filtered and trimmed to remove low quality reads, adapters, and other sequencing artifacts. The remaining reads were aligned to a reference database comprising only RefSeq-validated transcripts (i.e., assigned an “NM_” accession). Mouse samples were aligned to the mm10 assembly, and human samples were aligned to the hg19 assembly. […] Reads with more than 200 alignments were excluded from further analysis. […] All RNA-seq results have been deposited at NCBI's GEO under Accession No. GSE94353.
The inventors next investigated whether the MAPK and PI3/Akt pathways contributed to the dedifferentiation of hepatocytes. […] Rapamycin was included as a control, which is an inhibitor of the mTOR pathway, a serine/threonine kinase involved in cell signaling not identified as a key pathway in our analysis.

The subject of the next series is HepG2 cells. The experiment in a line: HepG2 viability / cell growth (cell counting by dye exclusion). It is filed as cell-based, human. The following applies: HepG2, 72 hours, compared to vehicle control. Here is the method:
CYP2C9 and 3A4 metabolism were measured using CYP450 Glo assay (Promega). In short, substrates were added to the media and incubated for 72 hours and the amount of metabolites generated were measured by adding the detection reagent and quantifying the luminescence in a Tecan® plate reader. Background was measured by incubating the substrates for 72 hours in the same media without cells. Cell counting for proliferation assay was carried out by dye exclusion in an automated cell counter (ThermoFisher).

In series [3] the test system is primary human hepatocytes (PHHs). The experiment in a line: RNA-Seq gene expression in MAPK inhibitor treated primary human hepatocytes. It is filed as cell-based. Here is the method: […]. […] […].
For small RNA-Seq profiling, hepatocytes from Hu8082 were used; for de-differentiation time course and let-7c transduction, hepatocytes from Hu4260, Hu8135, Hu4279 and Hu8137 were used. For both experiments, cells from all 4 donors were mixed in equal numbers after assessment of viability. For small molecule treatments, batch Hu4260 was used.
RNA-Seq was performed by LM-Seq (Illumina).
For small molecule treatments, batch Hu4260 was used.
. To ascertain that the increase in metabolic enzymes took place through specific MAPK inhibition, PHHs were treated with a second MAPK inhibitor, PD0325901, for 72 hours, followed by RNA-Seq analysis (Supplementary Table 4). […].

Series [4] concerns H9-ALB-GFP/AFP-Tomato (dual clone 1). The experiment in a line: Gene expression of hepatocytes differentiated from ES cells with 3 or 18 days of Activin A. It is filed as cell-based, human. On the set-up: scale not given here. The note with it: dual clone 1 hepatocytes, unsorted. The method, then:
The H9-ALB-GFP/AFP-Tomato (dual clone 1) were differentiated to hepatocytes using the protocol depicted in FIG. 4. Either 3 day or 18 days of Activin A treatment was used with the rest of the protocol being the same. The cells were not sorted and differentiated for 18 and 33 days (for 3 and 18 day DE respectively).
ES cells were cultured in E8 medium (Reference 2) and were differentiated to hepatocytes following a previously published protocol (Reference 1) with modifications. Briefly, at approximately 50% confluency the ES cells were singularized by accutase and seeded on matrigel coated plate in E6 medium containing 100 ng/ml Activin A (Sigma). They were cultured in the Activin A medium for seven days. From day 8 to day 12 the cells were treated with 25 ng/ml FGF4 (R&D Systems) along with 20 ng/ml BMP2 in E6. During days 13 through 17 the cells were treated with 20 ng/ml HGF (R&D Systems) and 10 ng/ml Oncostatin M (R&D Systems) in E6. Finally, the cells were cultured in E6 containing 0.1 μM Dexamethasone (Sigma) from day 18 to day 22. From day 8 onwards, SB431542 and DAPT were added to the medium to inhibit TGFB and NOTCH respectively at 10 μM final concentration.

Where [5] appears, read: primary human hepatocytes, treated 72 hours.
The mark [6] stands for this setting: 3 day Activin A (DE), differentiated 18 days.
[7] abbreviates: 18 day Activin A (DE), differentiated 33 days.

As to `CO[C@@H]1[C@H](N(C)C(=O)c2ccccc2)C[C@H]2O[C@]1(C)n1c3ccccc3c3c4c(c5c6ccccc6n2c5c31)C(=O)NC4=O` [Stauprimide], in series [1], the “ADH4 RNA-Seq expression” value is 12.82, the “AFP RNA-Seq expression” value is recorded as 2485.61, the “ALB RNA-Seq expression” value was 8513.48 and the “BAAT RNA-Seq expression” value was 10.4. In series [1], the CYP2D6 RNA-Seq expression came out at 0 TPM, the CYP2E1 RNA-Seq expression worked out at 9.6 TPM, the “HNF4A RNA-Seq expression” value was found to be 25.97 and the “SERPINA1 RNA-Seq expression” value came to 10030.14. Further, in series [1], the “SERPINC1 RNA-Seq expression” value stood at 42.45, the “UGT1A1 RNA-Seq expression” value is 322.35, the “UGT1A6 RNA-Seq expression” value is reported as 411.32 and the “UGT1A9 RNA-Seq expression” value is 47.42. In series [1] (in TPM), the “CYP1A1 RNA-Seq expression” value was found to be 47.04 and the “CYP2C9 RNA-Seq expression” value was determined as 19.63. Moreover, in the series on hepatocytes, the “expression of AFB” value was “did not increase expression” and the expression of albumin result is “increased expression”.

For `O=c1cc(N2CCOCC2)oc2c(-c3ccccc3)cccc12` [LY294002], in series [2], the ABCC2 gene expression came out at 232.34 transcripts per million, the CYP1A2 gene expression turned out to be 80.54 transcripts per million, the CYP2C9 gene expression is listed as 1332.65 transcripts per million and the CYP2E1 gene expression was 57.37 transcripts per million. Moreover, in series [2], the CYP3A11 gene expression came to 1409.71 transcripts per million, the CYP3A25 gene expression was determined as 61.42 transcripts per million, the UGT1A6A gene expression was 48.21 transcripts per million and the UGT1A9 gene expression was 15.27 transcripts per million. Also, in series [2], the UGT1A10 gene expression was 0.86 transcripts per million and the UGT2B5 gene expression is reported as 196.44 transcripts per million.

Take `O=C(NOC[C@H](O)CO)c1ccc(F)c(F)c1Nc1ccc(I)cc1F` [PD0325901]: the “HepG2 viability / cell growth” value with HepG2 cells was “increased cell death and growth arrest”. Moreover, in series [3] (PHHs treated 72 hours), the HBV receptor expression result was “upregulated”. In series [3] (setting [5]), this compound returned an AFP gene expression of 7.07 transcripts per million, an ALB gene expression of 1293.62 transcripts per million, a CD81 gene expression of 388.31 transcripts per million and a CYP1A2 gene expression of 1.87 transcripts per million. For the same compound, in series [3] (setting [5]), the CYP1B1 gene expression is given as 3.56 transcripts per million, the CYP2C9 gene expression amounted to 73.61 transcripts per million, the CYP2D6 gene expression is 1.24 transcripts per million and the CYP2E1 gene expression is 4.94 transcripts per million. Further, in series [3] (setting [5]), the CYP3A4 gene expression worked out at 22.44 transcripts per million, the SLCO1B1 gene expression amounted to 151.48 transcripts per million, the SLCO1B3 gene expression stood at 7.24 transcripts per million and the UGT1A1 gene expression is given as 69.02 transcripts per million. In series [3] (setting [5]), the UGT1A6 gene expression stood at 1337.30 transcripts per million and the UGT1A9 gene expression was determined as 87.51 transcripts per million.

In series [4] (setting [6]), “Activing A: Activin A, growth factor used to differentiate pluripotent stem cells to definitive endoderm” returned an AFP gene expression of 1663.62, an ALB gene expression of 600.43, a CYP1A1 gene expression of 23.85 and a CYP2C9 gene expression of 2.26. Also, in series [4] (setting [6]), the CYP2D6 gene expression is given as 2.24, the CYP2E1 gene expression was determined as 0, the CYP3A4 gene expression was 0.92 and the U6T1A1 gene expression was 3.86. Further, in series [4] (setting [6]), the UGT1A6 gene expression is given as 1.75. In series [4] (setting [7]), the AFP gene expression came out at 8635.2, the ALB gene expression was 5129.36, the CYP1A1 gene expression is 80.48 and the CYP2C9 gene expression amounted to 76.46. In addition, in series [4] (setting [7]), the CYP2D6 gene expression is 3.51, the CYP2E1 gene expression was 0.4, the CYP3A4 gene expression was determined as 33.64 and the U6T1A1 gene expression was 66.36. Also, the UGT1A6 gene expression in series [4] (setting [7]) worked out at 23.94.
